According to US10005818B2, “Derivative peptide compounds and methods of use” (REALTA HOLDINGS, LLC, priority 2010, dated 2018):
Square brackets hold non-standard residues; d marks the D form. Ends that are not written are not given here. Peptide text beside a SMILES is read from it. Sar = CNCC(=O)O

Legend:
Solubility in water = assay type: physicochemical
[1] = test system: complement activation in factor B-depleted human sera; assay type: biochemical
Procedure: Peptides were diluted to 0.77 mM in factor B-depleted human sera (Complement Technologies, Inc.) and incubated for 1 hour at 37° C. These peptides were then diluted with GVBS^++ to equal 2.5/s serum, of which 0.25 ml was combined with 0.4 ml of GVBS^++ and 0.1 ml of sensitized sheep red blood cells (RBCs) and again incubated for 1 hour at 37° C. The procedure was stopped by the addition of 4.0 ml of GVBS^−−, centrifuged for 5 minutes at 1,620×g, and the absorbance of the supernatants was read at 412 nm in a spectrophotometer. The percent lysis of each sample was standardized to that of the serum only control.
The final concentration of peptide in factor B-depleted serum was 0.77 mM. Each peptide was evaluated in triplicate and the mean values are reported. […] In the hemolytic assay, soluble peptides are standardized to water and insoluble peptides standardized to DMSO.
Polar Assortant peptides were serially diluted in undiluted factor B-depleted human sera (Complement Technologies, Inc.) and incubated for 1 hour at 37° C. Water, GVBS^++ and DMSO were included as controls. These peptides were then diluted with GVBS^++ to equal 2.5/s serum, of which 0.25 ml was combined with 0.4 ml of GVBS^++ and 0.1 ml of sensitized sheep red blood cells (RBCs) and again incubated for 1 hour at 37° C. The procedure was stopped by the addition of 4.0 ml of GVBS^−−, centrifuged for 5 minutes at 1,620×g, and the absorbance of the supernatants was read at 412 nm in a spectrophotometer. The percent lysis of each sample was standardized to that of the serum only control.
The final concentration of peptide in factor B-depleted serum was 0.77 mM. […] In the hemolytic assay, soluble peptides were standardized to water and insoluble peptides standardized to DMSO.
The final concentration of peptide in factor B-depleted serum was 0.77 mM. […] In the hemolytic assay, soluble peptides are standardized to water and insoluble peptides standardized to DMSO.

[2] = Table 7, PEGylated and sarcosine/alanine substitution peptides
[3] = Table 5, sarcosine substitution peptides

Row | Compound | Solubility in water (Solubility in water; Table 6, PEGylated PA peptides) | Hemolysis (%) [1] [%] | further results
1 | CC[C@H](C)[C@H](N)C(=O)N[C@@H](C)C(=O)N[C@@H](CC(C)C)C(=O)N[C@H](C(=O)N[C@@H](CC(C)C)C(=O)N[C@@H](CCC(=O)O)C(=O)N1CCC[C@H]1C(=O)N[C@H](C(=O)N[C@@H](CS)C(=O)N[C@@H](CS)C(=O)N[C@@H](CCC(N)=O)C(=O)N[C@@H](CCC(=O)O)C(=O)N[C@@H](CCCNC(=N)N)C(=O)N[C@@H](C)C(=O)N[C@@H](C)C(=O)NCCOCCOCCOCCOCCOCCOCCOCCOCCC(=O)O)[C@@H](C)CC)[C@@H](C)CC [PA-dPEG08] | Yes |  | 
2 | CC[C@H](C)[C@H](N)C(=O)N[C@@H](C)C(=O)N[C@@H](CC(C)C)C(=O)N[C@H](C(=O)N[C@@H](CC(C)C)C(=O)N[C@@H](CCC(=O)O)C(=O)N(C)CC(=O)N[C@H](C(=O)N[C@@H](CS)C(=O)N[C@@H](CS)C(=O)N[C@@H](CCC(N)=O)C(=O)N[C@@H](CCC(=O)O)C(=O)N[C@@H](CCCNC(=N)N)C(=O)N(C)CC(=O)N[C@@H](C)C(=O)O)[C@@H](C)CC)[C@@H](C)CC [Peptide A14SarP7Sar, IALILE(Sar)ICCQER(Sar)A] (H-IALILE[Sar]ICCQER[Sar]A-OH; N-terminus and C-terminus assumed) |  | 4.37 | Solubility in water (Solubility in water; [2]): Yes
3 | CC[C@H](C)[C@H](N)C(=O)N[C@@H](C)C(=O)N[C@@H](CC(C)C)C(=O)N[C@H](C(=O)N[C@@H](CC(C)C)C(=O)N(C)CC(=O)N1CCC[C@H]1C(=O)N[C@H](C(=O)N[C@@H](CS)C(=O)N[C@@H](CS)C(=O)N[C@@H](CCC(N)=O)C(=O)N[C@@H](CCC(=O)O)C(=O)N[C@@H](CCCNC(=N)N)C(=O)N[C@@H](C)C(=O)N[C@@H](C)C(=O)NCCOCCOCCOCCOCCOCCOCCOCCOCCOCCOCCOCCOCCOCCOCCOCCOCCOCCOCCOCCOCCOCCOCCOCCOCCC(=O)O)[C@@H](C)CC)[C@@H](C)CC [PA-E6Sar-dPEG24] |  | 12.88 | Solubility in water (Solubility in water; [2]): Yes
4 | CC[C@H](C)[C@H](N)C(=O)N[C@@H](C)C(=O)N[C@@H](CC(C)C)C(=O)N[C@H](C(=O)N[C@@H](CC(C)C)C(=O)N(C)CC(=O)N1CCC[C@H]1C(=O)N[C@H](C(=O)N[C@@H](CS)C(=O)N[C@@H](CS)C(=O)N[C@@H](CCC(N)=O)C(=O)N[C@@H](CCC(=O)O)C(=O)N[C@@H](CCCNC(=N)N)C(=O)N[C@@H](C)C(=O)N[C@@H](C)C(=O)O)[C@@H](C)CC)[C@@H](C)CC [PA-E6Sar] |  | 5.19 | Solubility in water (Solubility in water; [3]): No
5 | CC[C@H](C)[C@H](N)C(=O)N[C@@H](C)C(=O)N[C@@H](CC(C)C)C(=O)N[C@H](C(=O)N[C@@H](CC(C)C)C(=O)N[C@@H](CCC(=O)O)C(=O)N1CCC[C@H]1C(=O)N[C@H](C(=O)N[C@@H](CS)C(=O)N[C@@H](CS)C(=O)N[C@@H](CCC(N)=O)C(=O)N[C@@H](CCC(=O)O)C(=O)N[C@@H](CCCNC(=N)N)C(=O)N[C@@H](C)C(=O)N[C@@H](C)C(=O)NCCOCCOCCOCCOCCOCCOCCOCCOCCOCCOCCOCCOCCC(=O)O)[C@@H](C)CC)[C@@H](C)CC [PA-dPEG12] | Yes |  | 
6 | CC[C@H](C)[C@H](N)C(=O)N[C@@H](C)C(=O)N[C@@H](CC(C)C)C(=O)N[C@H](C(=O)N[C@@H](CC(C)C)C(=O)N[C@@H](CCC(=O)O)C(=O)N1CCC[C@H]1C(=O)N[C@H](C(=O)N(C)CC(=O)N[C@@H](C)C(=O)N[C@@H](CCC(N)=O)C(=O)N[C@@H](CCC(=O)O)C(=O)N[C@@H](CCCNC(=N)N)C(=O)N[C@@H](C)C(=O)N[C@@H](C)C(=O)O)[C@@H](C)CC)[C@@H](C)CC [PA-C9SarC10A] (H-IALILEPI[Sar]AQERAA-OH) |  | 99.37 | Solubility in water (Solubility in water; [2]): Yes
7 | CC[C@H](C)[C@H](N)C(=O)N[C@@H](C)C(=O)N[C@@H](CC(C)C)C(=O)N[C@H](C(=O)N[C@@H](CC(C)C)C(=O)N[C@@H](CCC(=O)O)C(=O)N1CCC[C@H]1C(=O)N[C@H](C(=O)N[C@@H](CS)C(=O)N[C@@H](CS)C(=O)N[C@@H](CCC(N)=O)C(=O)N[C@@H](CCC(=O)O)C(=O)N(C)CC(=O)N[C@@H](C)C(=O)N[C@@H](C)C(=O)O)[C@@H](C)CC)[C@@H](C)CC [PA-R13Sar] |  | 3.42 | Solubility in water (Solubility in water; [3]): No
8 | dPEG24-IALILEPICCQERAA (cysteine pairing not given here) [dPEG24-PA] |  |  | inhibition of complement activity in hemolytic assay ([1]; factor B depleted serum): varying degrees of complement inhibition; solubility in water / aqueous solutions (Solubility in water): soluble in water
9 | CC[C@H](C)[C@H](N)C(=O)N[C@@H](C)C(=O)N[C@@H](CC(C)C)C(=O)N[C@H](C(=O)N[C@@H](CC(C)C)C(=O)N[C@@H](CCC(=O)O)C(=O)N1CCC[C@H]1C(=O)N[C@H](C(=O)N[C@@H](CS)C(=O)N(C)CC(=O)N[C@@H](CCC(N)=O)C(=O)N[C@@H](CCC(=O)O)C(=O)N[C@@H](CCCNC(=N)N)C(=O)N[C@@H](C)C(=O)N[C@@H](C)C(=O)O)[C@@H](C)CC)[C@@H](C)CC [PA-C10Sar] |  | 56.18 | Solubility in water (Solubility in water; [3]): No
10 | CC[C@H](C)[C@H](N)C(=O)N[C@@H](C)C(=O)N[C@@H](CC(C)C)C(=O)N[C@H](C(=O)N[C@@H](CC(C)C)C(=O)N[C@@H](CCC(=O)O)C(=O)N1CCC[C@H]1C(=O)N[C@H](C(=O)N[C@@H](CS)C(=O)N[C@@H](CS)C(=O)N[C@@H](CCC(N)=O)C(=O)N[C@@H](CCC(=O)O)C(=O)N[C@@H](CCCNC(=N)N)C(=O)N[C@@H](C)C(=O)N[C@@H](C)C(=O)NCCOCCOCCC(=O)O)[C@@H](C)CC)[C@@H](C)CC [PA-dPEG02] | Yes |  | 
11 | CC[C@H](C)[C@H](N)C(=O)N[C@@H](C)C(=O)N[C@@H](CC(C)C)C(=O)N[C@H](C(=O)N[C@@H](CC(C)C)C(=O)N[C@@H](CCC(=O)O)C(=O)N1CCC[C@H]1C(=O)N[C@H](C(=O)N[C@@H](CS)C(=O)N[C@@H](CS)C(=O)N[C@@H](CCC(N)=O)C(=O)N[C@@H](CCC(=O)O)C(=O)N[C@@H](CCCNC(=N)N)C(=O)N[C@@H](C)C(=O)N[C@@H](C)C(=O)NCCOCCOCCOCCC(=O)O)[C@@H](C)CC)[C@@H](C)CC [PA-dPEG03] | Yes |  | 
12 | CC[C@H](C)[C@H](N)C(=O)N[C@@H](C)C(=O)N[C@@H](CC(C)C)C(=O)N[C@H](C(=O)N[C@@H](CC(C)C)C(=O)N[C@@H](CCC(=O)O)C(=O)N1CCC[C@H]1C(=O)N[C@H](C(=O)N[C@@H](CS)C(=O)N[C@@H](CS)C(=O)N[C@@H](CCC(N)=O)C(=O)N[C@@H](CCC(=O)O)C(=O)N[C@@H](CCCNC(=N)N)C(=O)N[C@@H](C)C(=O)N[C@@H](C)C(=O)O)[C@@H](C)CC)[C@@H](C)CC [PA] |  |  | solubility in water / aqueous solutions (Solubility in water): low solubility; Solubility in water (Solubility in water; [3]): No
13 | CC[C@H](C)[C@H](N)C(=O)N[C@@H](C)C(=O)N[C@@H](CC(C)C)C(=O)N[C@H](C(=O)N[C@@H](CC(C)C)C(=O)N[C@@H](CCC(=O)O)C(=O)N1CCC[C@H]1C(=O)N[C@H](C(=O)N[C@@H](CS)C(=O)N[C@@H](CS)C(=O)N[C@@H](CCC(N)=O)C(=O)N[C@@H](CCC(=O)O)C(=O)N[C@@H](CCCNC(=N)N)C(=O)N[C@@H](C)C(=O)N[C@@H](C)C(=O)NCCOCCOCCOCCOCCC(=O)O)[C@@H](C)CC)[C@@H](C)CC [PA-dPEG04] | Yes |  | 
14 | CC[C@H](C)[C@H](N)C(=O)N[C@@H](C)C(=O)N[C@@H](CC(C)C)C(=O)N[C@H](C(=O)N[C@@H](CC(C)C)C(=O)N[C@@H](CCC(=O)O)C(=O)N1CCC[C@H]1C(=O)N[C@H](C(=O)N[C@@H](CS)C(=O)N[C@@H](CS)C(=O)N[C@@H](CCC(N)=O)C(=O)N[C@@H](CCC(=O)O)C(=O)N[C@@H](CCCNC(=N)N)C(=O)N[C@@H](C)C(=O)N[C@@H](C)C(=O)NCCOCCOCCOCCOCCOCCOCCOCCOCCOCCOCCOCCOCCOCCOCCOCCOCCC(=O)O)[C@@H](C)CC)[C@@H](C)CC [PA-dPEG16] | Yes |  | 
15 | CC[C@H](C)[C@H](N)C(=O)N[C@@H](C)C(=O)N[C@@H](CC(C)C)C(=O)N[C@H](C(=O)N[C@@H](CC(C)C)C(=O)N[C@@H](CCC(=O)O)C(=O)N1CCC[C@H]1C(=O)N[C@H](C(=O)N[C@@H](CS)C(=O)N[C@@H](CS)C(=O)N[C@@H](CCC(N)=O)C(=O)N[C@@H](CCC(=O)O)C(=O)N[C@@H](CCCNC(=N)N)C(=O)N[C@@H](C)C(=O)N[C@@H](C)C(=O)NCCOCCOCCOCCOCCOCCOCCOCCOCCOCCOCCOCCOCCOCCOCCOCCOCCOCCOCCOCCOCCC(=O)O)[C@@H](C)CC)[C@@H](C)CC [PA-dPEG20] | Yes |  | 
16 | CC[C@H](C)[C@H](N)C(=O)N[C@@H](C)C(=O)N[C@@H](CC(C)C)C(=O)N[C@H](C(=O)N[C@@H](CC(C)C)C(=O)N[C@@H](CCC(=O)O)C(=O)N1CCC[C@H]1C(=O)N[C@H](C(=O)N[C@@H](CS)C(=O)N[C@@H](CS)C(=O)N[C@@H](CCC(N)=O)C(=O)N[C@@H](CCC(=O)O)C(=O)N[C@@H](CCCNC(=N)N)C(=O)N[C@@H](C)C(=O)N[C@@H](C)C(=O)NCCOCCOCCOCCOCCOCCOCCC(=O)O)[C@@H](C)CC)[C@@H](C)CC [PA-dPEG06] | No |  | 
